Reference: paper PMC3873929, “Cellular Density Effect on RGD Ligand Internalization in Glioblastoma for MRI Application” (PLoS ONE, 2013)
Several values for one entry are separate records, joined by “and”; a condition that tells them apart may be missing. Equal entries are not always repeated.

Key:
Format in all cases: cell-based, Human
[1] = test system: U87 cells; assay: T1-weighted MRI (2D FLASH) of U87 cells after uptake of contrast agent; conditions: U87 cells at 7*10^4 cell/cm^2, 400 µM, 4.7 T, unlabeled cells SNR 60
Experimental: E-[c(RGDfK)2]-DOTA-Gd uptake by U87 cells was performed on cells platted at 7.10^4 cells/cm^2. After 24 h, the cells were then incubated for 4 h with 400 µM of E-[c(RGDfK)2]-DOTA-Gd or for 1 h with MnCl2 at 400 µM as positive contrast for the T1-weighted (T1-w) sequence. Then the medium was discarded and the cells were washed with RPMI. The cells were re-suspended at 2.10_6 cells in 100 µL of phosphate buffer saline (PBS) for each condition and mixed with 100 µL of agarose 2% (Sigma-Aldrich).
MR images of cells trapped in agarose gel were acquired on a 4.7 T Biospec system (Bruker, Ettlingen, Germany). The system was equipped with a 6-cm diameter BG6 gradient system capable of 950 mT/m maximum strength. Imaging was performed with a birdcage resonator (35-mm diameter and 80-mm length) tuned at 200.3 MHz. 2D images were acquired with a T1-w sequence (FLASH sequence, TE/TR: 1,6/14 ms, flip angle: 60°, FOV: 25*25 mm, matrix:128*96, […], total acquisition time: 5 min 44 s).

[2] = test system: U87 cells; assay: Flow cytometry uptake with cytoskeleton drugs (paclitaxel, cytoD, colchicine, nocodazole); conditions: 1 h
Experimental: (§1) Uptakes of E-[c(RGDfK)2]-Alexa488 and iRGD-alexa488 by U87 cells were compared for different cellular densities using flow cytometry. Twenty four multiwell plates (Becton-Dickinson, 2 cm^2/well), were pretreated with collagen (Sigma-Aldrich) (10 µg/cm^2). Then the cells were seeded during 24 h either at densities ranging from 8.10^3 to 10^5 cells/cm2 or at three typical densities being in the lowest, the median and the highest values of the previously mentioned density range. The cells were incubated 1 h with the fluorescent RGD ligands (E-[c(RGDfK)2]-Alexa488, 2 µM; iRGD-alexa488, 15 µM). Then the medium was discarded and the cells were washed with Roswell Park Memorial Institute Medium (RPMI, Gibco Corp). Thereafter the cells were re-suspended in RPMI at 100 cells/µl and analyzed by flow cytometry (Guava easyCyte flow cytometer/counter, Millipore, λexc: 488 nm, λem: 525 nm).
The microtubule targeting was performed using paclitaxel (10 µM), colchicin (7.5 µM) and nocodazole (30 µM).
(§2) All of these inhibitors and drugs were applied on the cells for 1 h simultaneously with the fluorescent RGD ligands. When specified, incubation of drugs begun 20 min before the incubation with the RGD ligands. All the reagents were from Sigma-Aldrich.

[3] = test system: U87 cells; assay: Flow cytometry uptake under different energy substrates and oxidative metabolism inhibitors
Experimental: Human GBM cell line U87-MG from the American Type Culture Collection (ATCC, LGC standards, Middlesex, UK) was cultured in Dulbecco's modified eagles medium (DMEM, Gibco Corp) supplemented with 10% fetal calf serum (FCS, Gibco Corp), in a humidified atmosphere with 5% CO2 at 37°C. The characterization of the metabolism contribution was performed with DMEM without glucose and pyruvate (DMEM, Gibco Corp). Glucose or pyruvate were added when necessary at the concentration of 1 g/L and 0.11 g/L , respectively.
as §1
The oxidative metabolism was studied with oligomycine (20 µM) and rotenone (10 µM).
as §2

[4] = test system: U87 cells; assay: Flow cytometry uptake with endocytosis pathway inhibitors (nystatin, amiloride, chloroquine); conditions: 1 h
Experimental: as §1
The clathrin-mediated endocytosis and the caveola-dependent endocytosis were characterized by incubations with chloroquine (100 µM) and nystatin (30 µM), respectively. Contribution of macropinocytosis was studied following amiloride treatment (1 mM).
as §2

[5] = test system: U87 cells; assay: Fluorescence microscopy of sub-cellular location of fluorescent RGD ligands
Experimental: Protocols for microscopy were identical to those for flow cytometry. Cells were seeded on glass coverslips after collagen treatment as described above. After the different sets of incubations the cells were washed with RPMI and fixed with paraformaldehyde (4%, 20 min). Nuclei were then labeled with DAPI (0.01 mg/ml). After three washes, the coverslips were mounted on glass slides and observed using a Leica DM5500 B (magnification 63×, λexc: 480 nm, λem: 530 nm and λexc:360 nm λem: 470 nm for alexa fluor-488 and DAPI respectively).

[6] = test system: U87 cells; assay: Flow cytometry uptake of fluorescent RGD ligands versus cell density; conditions: 8*10^3 to 10^5 cells/cm^2, 1 h incubation, Alexa Fluor-488 conjugates (E-[c(RGDfK)2] 2 µM; iRGD 15 µM)
Experimental: as §1

[7] = test system: U87 cells; assay: T1-weighted MRI (3D FLASH) of U87 cells seeded at three densities and labeled with RGD-Gd; conditions: 400 µM
Experimental: Seeded at three densities, cells were incubated with E-[c(RGDfK)2]-DOTA-Gd at 400 µM for 4 h. The same protocol to prepare cells trapped in agarose gel was used. 3D images of the RGD internalization were acquired with a T1-w sequence (FLASH sequence, TE/TR: 1,5/12 ms, flip angle: 20°, FOV: 30*25*20 mm, matrix:128*128*64, 6 averages, total acquisition time: 9 min 49 s).

Compound: [Cl][Mn][Cl] [MnCl2, reference compound]
- SNR of labeled U87 cells (T1-w MRI) ([1]; positive contrast control, 1 h incubation): 100

Compound: CRGDK/RGPD/EC [iRGD-alexa488]
- Uptake results after colchicine treatment (strong decrease), high density ([2]; colchicine 7.5 µM, high density (80000 cell/cm^2 for E-[c(RGDfK)2], 70000 for iRGD), mean ± SEM, n≥3): 54.8%±0.8%
- Uptake results after colchicine treatment (strong decrease), low density ([2]; colchicine 7.5 µM, low density (10000 cell/cm^2), mean ± SEM, n≥3): 55.0%±0.3%
- Uptake results after colchicine treatment (strong decrease), medium density ([2]; colchicine 7.5 µM, medium density (40000 cell/cm^2 for E-[c(RGDfK)2], 35000 for iRGD), mean ± SEM, n≥3): 53.1%±0.1%
- cytoD effect on internalization (decrease), high density ([2]; cytoD 20 µM, high density (80000 cell/cm^2 for E-[c(RGDfK)2], 70000 for iRGD), mean ± SEM, n≥3): 29.0%±2.1%
- cytoD effect on internalization (decrease), low density ([2]; cytoD 20 µM, low density (10000 cell/cm^2), mean ± SEM, n≥3): 29.7%±1.3%
- cytoD effect on internalization (decrease), medium density ([2]; cytoD 20 µM, medium density (35000 cell/cm^2 for iRGD), mean ± SEM, n≥3): 23.5%±1.3%
- Effect of paclitaxel (stabilization of polymerized microtubules) on internalization ([2]; paclitaxel 10 µM): did not alter
- Internalization without glucose and with or without pyruvate (conditions 2 and 3) ([3]; DMEM without glucose, no oligomycin, remained cell density dependent): not altered
- Internalization with oligomycin in presence of glucose and pyruvate (condition 4) ([3]; oligomycin 20 µM, glucose 1 g/L, pyruvate 0.11 g/L): decreased more for the lowest cell densities than for the highest ones
- Internalization without glucose in the presence of pyruvate and oligomycin (condition 5) ([3]; oligomycin 20 µM, regardless of the cell density): strong inhibition
- Internalization with rotenone compared with oligomycin ([3]; rotenone 10 µM, data not shown): comparable
- Effect of macropinocytosis inhibition (amiloride) on internalization ([4]; amiloride 1 mM): had no effect
- Decrease of uptake after chloroquine treatment, high density ([4]; chloroquine 100 µM, high density (95000 cell/cm^2 for E-[c(RGDfK)2], 75000 for iRGD), mean ± SEM, n≥3): 53.9%±2.5%
- Decrease of uptake after chloroquine treatment, low density ([4]; chloroquine 100 µM, low density (15000 cell/cm^2 for E-[c(RGDfK)2], 7000 for iRGD), mean ± SEM, n≥3): 42.4%±1.1% and 42%
- Decrease of uptake after chloroquine treatment, medium density ([4]; chloroquine 100 µM, medium density (50000 cell/cm^2 for E-[c(RGDfK)2], 35000 for iRGD), mean ± SEM, n≥3): 48.2±0.2%
- Effect of caveolin-dependent endocytosis inhibition (nystatin) on internalization ([4]; nystatin 30 µM, all studied cell densities): did not alter
- Sub-cellular location of the fluorescent signal ([5]; 1 h at 37°C, all studied cell densities, no inhibitor (iRGD-alexa488 15 µM)): most of the signal appeared intracellular
- Membrane labeling ([5]; 1 h at 37°C, no inhibitor (iRGD-alexa488 15 µM)): undetectable
- Fluorescence location in the presence or not of nystatin ([5]; nystatin (30 µM), data not shown): inside cytoplasmic vesicles
- Sub-cellular location of fluorescence during inhibition of clathrin-mediated endocytosis ([5]; with chloroquine (100 µM)): typical cytoplasmic membrane labeling
- Increase of cell labeling (MFI) at the highest densities compared to the lowest [6]: 30%

Compound: E-[c(RGDfK)2]-DOTA-Gd (bicyclic or more) [RGD-gadolinium chelate made by mixing E-[c(RGDfK)2]-DOTA with GdCl2; MRI contrast agent]
- SNR of labeled U87 cells (T1-w MRI) ([1]; 4 h incubation): 70
- SNR values for low, medium and high density compared with each other [7]: not significantly different
- SNR of the different cell densities compared with SNR of control ([7]; p<0.05): significantly higher
- SNR (T1-w MRI), highest cell density ([7]; highest density, 4 h, 3D FLASH 4.7 T): 16.5
